The values below come from paper PMC6401633, “Evidence for Effective Multiple K^+-Current Inhibitions by Tolvaptan, a Non-peptide Antagonist of Vasopressin V2 Receptor” (Frontiers in Pharmacology, 2019).

This assay deals with T1, large-conductance Ca2+-activated K+ (BKCa) channel (Rattus norvegicus, UniProt Q62976).
T1 construct: gene Kcnma1; native channel in inside-out membrane patches of GH3 cells
Put plainly: single-channel patch clamp, inside-out; open probability […] to […] at […], no significant change at […]. The assay is classed as cell-based.

T1 sequence (Q62976 whole entry): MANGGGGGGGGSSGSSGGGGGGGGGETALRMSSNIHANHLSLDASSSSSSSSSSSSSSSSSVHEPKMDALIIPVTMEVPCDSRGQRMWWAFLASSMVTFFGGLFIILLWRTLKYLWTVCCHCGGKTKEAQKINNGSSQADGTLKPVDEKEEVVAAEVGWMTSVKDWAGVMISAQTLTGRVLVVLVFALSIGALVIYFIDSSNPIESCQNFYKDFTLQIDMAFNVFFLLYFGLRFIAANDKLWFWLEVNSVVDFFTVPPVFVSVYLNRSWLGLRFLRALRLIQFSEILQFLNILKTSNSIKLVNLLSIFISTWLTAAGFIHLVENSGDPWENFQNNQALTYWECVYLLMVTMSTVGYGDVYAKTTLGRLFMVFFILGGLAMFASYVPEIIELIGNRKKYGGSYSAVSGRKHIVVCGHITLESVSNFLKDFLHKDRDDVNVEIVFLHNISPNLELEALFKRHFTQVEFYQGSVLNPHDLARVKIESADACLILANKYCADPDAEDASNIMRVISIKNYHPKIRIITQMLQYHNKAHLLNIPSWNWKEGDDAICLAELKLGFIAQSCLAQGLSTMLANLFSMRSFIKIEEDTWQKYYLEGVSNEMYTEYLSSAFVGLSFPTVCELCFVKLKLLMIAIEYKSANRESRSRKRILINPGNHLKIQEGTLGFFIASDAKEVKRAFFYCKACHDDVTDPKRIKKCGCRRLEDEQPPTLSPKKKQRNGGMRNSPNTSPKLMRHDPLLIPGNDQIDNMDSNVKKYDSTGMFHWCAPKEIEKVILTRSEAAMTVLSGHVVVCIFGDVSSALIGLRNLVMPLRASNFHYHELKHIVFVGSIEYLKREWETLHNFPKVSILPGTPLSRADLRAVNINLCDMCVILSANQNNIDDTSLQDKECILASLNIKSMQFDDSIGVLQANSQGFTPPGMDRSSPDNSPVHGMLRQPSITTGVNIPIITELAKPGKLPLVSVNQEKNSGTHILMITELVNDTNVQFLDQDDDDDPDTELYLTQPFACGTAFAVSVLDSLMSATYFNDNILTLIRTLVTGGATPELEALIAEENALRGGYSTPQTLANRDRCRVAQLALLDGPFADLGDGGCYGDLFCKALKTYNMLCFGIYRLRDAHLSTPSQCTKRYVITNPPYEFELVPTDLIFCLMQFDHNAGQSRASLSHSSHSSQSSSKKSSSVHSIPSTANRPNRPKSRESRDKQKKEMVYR

Take `Cc1ccccc1C(=O)Nc1ccc(C(=O)N2CCCC(O)c3cc(Cl)ccc32)c(C)c1` (stereo not shown) [TLV, N-[4-[(7-chloro-2,3,4,5-tetrahydro-5-hydroxy-1H-1-benzazepin-1-yl)carbonyl]-3-methylphenyl]-2-methylbenzamide]: the “single-channel patch clamp, inside-out; open probability 0.0191 to 0.0143 at 30” value worked out at 30 µM.
